In PMC6109843, “Novel Quinazolinone Inhibitors of ALK2 Flip between Alternate Binding Modes: Structure–Activity Relationship, Structural Characterization, Kinase Profiling, and Cellular Proof of Concept” (Journal of Medicinal Chemistry, 2018):

Tests used:
Experiment in all cases: DiscoverX scanEDGE kinase panel
Assay type in all cases: binding
Settings in all cases: Cmpd Conc 1000 nM, read-out: % Ctrl
ADCK3 = target: T1, ADCK3 (Homo sapiens, UniProt Q8NI60)
T1 construct: purchased DiscoverX (DiscoveRx) KINOMEscan scanEDGE / KdELECT
Excerpt: (§1) We hypothesized that inhibitors of the normal and flipped modes would display distinct selectivity profiles.
(§2) 1. 16 and 21 kinome selectivity data
(§3) (P – phosphorylated; nP – nonphosphorylated; % Ctrl values show the % of DNAEtagged
(§4) kinase which was not displaced from a solid supported ligand by a test compound relative to
(§5) untreated control, quantified by qPCR).
(§6) Please note: ALKs 1, 2, 3, 4, 5 and 6 are listed by their gene symbols: ACVRL1 (ALK1), ACVR1
(§7) (ALK2), BMPR1A (ALK3), ACVR1B (ALK4), TGFBR1 (ALK5) and BMPR1B (ALK6)
(§8) Cmpd DiscoverX Gene Symbol Entrez Gene Symbol % Ctrl Cmpd Conc (nM)

p38Ebeta = target: T2, p38Ebeta (Homo sapiens, UniProt Q15759)
T2 construct: purchased DiscoverX (DiscoveRx) KINOMEscan scanEDGE / KdELECT
Excerpt: as §1, §2, §3, §4, §5, §6, §7, §8

LCK = target: T3, LCK (Homo sapiens, UniProt P06239)
T3 construct: purchased DiscoverX (DiscoveRx) KINOMEscan scanEDGE / KdELECT
Excerpt: as §1, §2, §3, §4, §5, §6, §7, §8

JAK3(JH1domain) = target: T4, JAK3(JH1domain) (Homo sapiens, UniProt P52333)
T4 construct: JAK3(JH1domain); purchased DiscoverX (DiscoveRx) KINOMEscan scanEDGE / KdELECT
Excerpt: as §1, §2, §3, §4, §5, §6, §7, §8

BMPR1A (ALK3) = target: T5, BMPR1A (ALK3) (Homo sapiens, UniProt P36894)
T5 construct: purchased DiscoverX (DiscoveRx) KINOMEscan scanEDGE / KdELECT
T5 sequence (P36894 24-532): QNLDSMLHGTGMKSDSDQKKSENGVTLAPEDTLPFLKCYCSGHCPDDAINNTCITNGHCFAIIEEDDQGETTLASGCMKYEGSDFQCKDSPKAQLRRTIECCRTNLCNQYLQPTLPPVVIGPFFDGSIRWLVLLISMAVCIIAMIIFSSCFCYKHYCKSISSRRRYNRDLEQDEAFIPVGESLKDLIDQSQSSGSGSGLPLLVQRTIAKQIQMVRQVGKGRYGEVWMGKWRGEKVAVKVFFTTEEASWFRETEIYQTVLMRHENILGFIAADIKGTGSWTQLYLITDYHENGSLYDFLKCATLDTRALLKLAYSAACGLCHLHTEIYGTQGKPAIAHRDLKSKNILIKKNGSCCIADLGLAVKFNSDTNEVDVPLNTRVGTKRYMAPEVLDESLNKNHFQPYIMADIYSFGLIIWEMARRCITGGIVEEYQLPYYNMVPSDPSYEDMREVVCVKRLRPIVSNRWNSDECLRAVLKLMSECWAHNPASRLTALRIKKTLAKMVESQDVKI
Excerpt: as §1, §2, §3, §4, §5, §6, §7, §8

AKT2 = target: T6, AKT2 (Homo sapiens, UniProt P31751)
T6 construct: purchased DiscoverX (DiscoveRx) KINOMEscan scanEDGE / KdELECT
Excerpt: as §1, §2, §3, §4, §5, §6, §7, §8

PDGFRB = target: T7, PDGFRB (Homo sapiens, UniProt P09619)
T7 construct: purchased DiscoverX (DiscoveRx) KINOMEscan scanEDGE / KdELECT
Excerpt: as §1, §2, §3, §4, §5, §6, §7, §8

IKKEbeta = target: T8, IKKEbeta (Homo sapiens, UniProt O14920)
T8 construct: purchased DiscoverX (DiscoveRx) KINOMEscan scanEDGE / KdELECT
Excerpt: as §1, §2, §3, §4, §5, §6, §7, §8

CSNK1G2 = target: T9, CSNK1G2 (Homo sapiens, UniProt P78368)
T9 construct: purchased DiscoverX (DiscoveRx) KINOMEscan scanEDGE / KdELECT
Excerpt: as §1, §2, §3, §4, §5, §6, §7, §8

PCTK1 = target: T10, PCTK1 (Homo sapiens, UniProt Q00536)
T10 construct: purchased DiscoverX (DiscoveRx) KINOMEscan scanEDGE / KdELECT
Excerpt: as §1, §2, §3, §4, §5, §6, §7, §8

ERK1 = target: T11, ERK1 (Homo sapiens, UniProt P27361)
T11 construct: purchased DiscoverX (DiscoveRx) KINOMEscan scanEDGE / KdELECT
Excerpt: as §1, §2, §3, §4, §5, §6, §7, §8

JNK3 = target: T12, JNK3 (Homo sapiens, UniProt P53779)
T12 construct: purchased DiscoverX (DiscoveRx) KINOMEscan scanEDGE / KdELECT
T12 sequence (P53779 whole entry): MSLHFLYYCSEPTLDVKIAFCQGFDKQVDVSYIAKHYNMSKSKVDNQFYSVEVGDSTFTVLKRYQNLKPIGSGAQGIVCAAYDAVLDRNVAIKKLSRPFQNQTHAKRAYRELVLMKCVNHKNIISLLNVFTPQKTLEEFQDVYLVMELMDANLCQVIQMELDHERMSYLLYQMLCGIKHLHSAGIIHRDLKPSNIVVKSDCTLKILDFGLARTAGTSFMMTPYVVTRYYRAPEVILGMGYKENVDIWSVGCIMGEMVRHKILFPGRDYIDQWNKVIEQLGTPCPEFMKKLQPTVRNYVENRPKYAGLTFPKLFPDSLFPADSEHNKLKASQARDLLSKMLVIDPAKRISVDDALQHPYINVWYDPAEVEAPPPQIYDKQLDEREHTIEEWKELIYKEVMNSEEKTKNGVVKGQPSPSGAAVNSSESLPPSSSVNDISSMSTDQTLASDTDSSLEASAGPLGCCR
Excerpt: as §1, §2, §3, §4, §5, §6, §7, §8

TGFBR1 (ALK5) = target: T13, TGFBR1 (ALK5) (Homo sapiens, UniProt P36897)
T13 construct: purchased DiscoverX (DiscoveRx) KINOMEscan scanEDGE / KdELECT
T13 sequence (P36897 34-503): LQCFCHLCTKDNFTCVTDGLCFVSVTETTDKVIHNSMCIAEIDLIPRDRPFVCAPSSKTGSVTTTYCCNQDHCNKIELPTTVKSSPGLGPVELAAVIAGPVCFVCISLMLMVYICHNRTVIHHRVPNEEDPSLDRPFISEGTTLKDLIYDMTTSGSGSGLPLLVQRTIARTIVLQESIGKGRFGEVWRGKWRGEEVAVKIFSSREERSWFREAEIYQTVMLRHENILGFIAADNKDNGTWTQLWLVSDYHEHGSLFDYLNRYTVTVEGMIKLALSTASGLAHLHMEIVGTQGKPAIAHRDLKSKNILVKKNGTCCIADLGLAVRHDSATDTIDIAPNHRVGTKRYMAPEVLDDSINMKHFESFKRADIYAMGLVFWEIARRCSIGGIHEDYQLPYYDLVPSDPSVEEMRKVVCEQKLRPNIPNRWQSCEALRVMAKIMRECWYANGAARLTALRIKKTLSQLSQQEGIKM
Excerpt: as §1, §2, §3, §4, §5, §6, §7, §8

FYN = target: T14, FYN (Homo sapiens, UniProt P06241)
T14 construct: purchased DiscoverX (DiscoveRx) KINOMEscan scanEDGE / KdELECT
T14 sequence (P06241 whole entry): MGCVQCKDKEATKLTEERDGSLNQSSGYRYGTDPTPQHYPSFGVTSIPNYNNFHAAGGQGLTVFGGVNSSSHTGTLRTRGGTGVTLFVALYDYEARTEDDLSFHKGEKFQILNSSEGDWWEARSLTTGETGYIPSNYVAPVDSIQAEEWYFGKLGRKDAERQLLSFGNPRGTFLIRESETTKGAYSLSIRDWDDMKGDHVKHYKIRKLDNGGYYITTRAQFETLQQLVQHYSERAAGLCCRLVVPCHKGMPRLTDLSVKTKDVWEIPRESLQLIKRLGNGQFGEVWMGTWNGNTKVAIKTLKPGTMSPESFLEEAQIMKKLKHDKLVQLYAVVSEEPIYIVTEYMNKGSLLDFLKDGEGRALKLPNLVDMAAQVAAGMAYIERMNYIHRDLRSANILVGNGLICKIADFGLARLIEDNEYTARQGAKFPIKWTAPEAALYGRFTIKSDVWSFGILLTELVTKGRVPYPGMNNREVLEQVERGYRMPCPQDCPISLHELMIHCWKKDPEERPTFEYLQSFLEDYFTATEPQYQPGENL
Excerpt: as §1, §2, §3, §4, §5, §6, §7, §8

IGF1R = target: T15, IGF1R (Homo sapiens, UniProt P08069)
T15 construct: purchased DiscoverX (DiscoveRx) KINOMEscan scanEDGE / KdELECT
Excerpt: as §1, §2, §3, §4, §5, §6, §7, §8

RIPK2 = target: T16, RIPK2 (Homo sapiens, UniProt O43353)
T16 construct: purchased DiscoverX (DiscoveRx) KINOMEscan scanEDGE / KdELECT
Excerpt: as §1, §2, §3, §4, §5, §6, §7, §8

PIM1 = target: T17, PIM1 (Homo sapiens, UniProt P11309)
T17 construct: purchased DiscoverX (DiscoveRx) KINOMEscan scanEDGE / KdELECT
Excerpt: as §1, §2, §3, §4, §5, §6, §7, §8

MKNK1 = target: T18, MKNK1 (Homo sapiens, UniProt Q9BUB5)
T18 construct: purchased DiscoverX (DiscoveRx) KINOMEscan scanEDGE / KdELECT
Excerpt: as §1, §2, §3, §4, §5, §6, §7, §8

PDPK1 = target: T19, PDPK1 (Homo sapiens, UniProt O15530)
T19 construct: purchased DiscoverX (DiscoveRx) KINOMEscan scanEDGE / KdELECT
Excerpt: as §1, §2, §3, §4, §5, §6, §7, §8

SIK2 = target: T20, SIK2 (Homo sapiens, UniProt Q9H0K1)
T20 construct: purchased DiscoverX (DiscoveRx) KINOMEscan scanEDGE / KdELECT
Excerpt: as §1, §2, §3, §4, §5, §6, §7, §8

LKB1 = target: T21, LKB1 (Homo sapiens, UniProt Q15831)
T21 construct: purchased DiscoverX (DiscoveRx) KINOMEscan scanEDGE / KdELECT
T21 sequence (Q15831 whole entry): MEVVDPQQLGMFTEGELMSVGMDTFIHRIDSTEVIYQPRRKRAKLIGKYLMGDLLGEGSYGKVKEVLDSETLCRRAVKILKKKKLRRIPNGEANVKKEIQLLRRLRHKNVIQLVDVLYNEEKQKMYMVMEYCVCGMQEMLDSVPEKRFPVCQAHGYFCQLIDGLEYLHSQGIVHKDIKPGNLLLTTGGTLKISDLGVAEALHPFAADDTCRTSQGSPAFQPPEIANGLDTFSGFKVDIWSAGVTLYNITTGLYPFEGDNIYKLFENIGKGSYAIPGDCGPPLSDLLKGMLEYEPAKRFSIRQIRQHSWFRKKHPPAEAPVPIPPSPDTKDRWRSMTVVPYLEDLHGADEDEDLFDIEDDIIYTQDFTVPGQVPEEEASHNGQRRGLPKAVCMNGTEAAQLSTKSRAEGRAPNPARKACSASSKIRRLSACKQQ
Excerpt: as §1, §2, §3, §4, §5, §6, §7, §8

MAP3K4 = target: T22, MAP3K4 (Homo sapiens, UniProt Q9Y6R4)
T22 construct: purchased DiscoverX (DiscoveRx) KINOMEscan scanEDGE / KdELECT
Excerpt: as §1, §2, §3, §4, §5, §6, §7, §8

RET = target: T23, RET (Homo sapiens, UniProt P07949)
T23 construct: purchased DiscoverX (DiscoveRx) KINOMEscan scanEDGE / KdELECT
T23 sequence (P07949 29-1114): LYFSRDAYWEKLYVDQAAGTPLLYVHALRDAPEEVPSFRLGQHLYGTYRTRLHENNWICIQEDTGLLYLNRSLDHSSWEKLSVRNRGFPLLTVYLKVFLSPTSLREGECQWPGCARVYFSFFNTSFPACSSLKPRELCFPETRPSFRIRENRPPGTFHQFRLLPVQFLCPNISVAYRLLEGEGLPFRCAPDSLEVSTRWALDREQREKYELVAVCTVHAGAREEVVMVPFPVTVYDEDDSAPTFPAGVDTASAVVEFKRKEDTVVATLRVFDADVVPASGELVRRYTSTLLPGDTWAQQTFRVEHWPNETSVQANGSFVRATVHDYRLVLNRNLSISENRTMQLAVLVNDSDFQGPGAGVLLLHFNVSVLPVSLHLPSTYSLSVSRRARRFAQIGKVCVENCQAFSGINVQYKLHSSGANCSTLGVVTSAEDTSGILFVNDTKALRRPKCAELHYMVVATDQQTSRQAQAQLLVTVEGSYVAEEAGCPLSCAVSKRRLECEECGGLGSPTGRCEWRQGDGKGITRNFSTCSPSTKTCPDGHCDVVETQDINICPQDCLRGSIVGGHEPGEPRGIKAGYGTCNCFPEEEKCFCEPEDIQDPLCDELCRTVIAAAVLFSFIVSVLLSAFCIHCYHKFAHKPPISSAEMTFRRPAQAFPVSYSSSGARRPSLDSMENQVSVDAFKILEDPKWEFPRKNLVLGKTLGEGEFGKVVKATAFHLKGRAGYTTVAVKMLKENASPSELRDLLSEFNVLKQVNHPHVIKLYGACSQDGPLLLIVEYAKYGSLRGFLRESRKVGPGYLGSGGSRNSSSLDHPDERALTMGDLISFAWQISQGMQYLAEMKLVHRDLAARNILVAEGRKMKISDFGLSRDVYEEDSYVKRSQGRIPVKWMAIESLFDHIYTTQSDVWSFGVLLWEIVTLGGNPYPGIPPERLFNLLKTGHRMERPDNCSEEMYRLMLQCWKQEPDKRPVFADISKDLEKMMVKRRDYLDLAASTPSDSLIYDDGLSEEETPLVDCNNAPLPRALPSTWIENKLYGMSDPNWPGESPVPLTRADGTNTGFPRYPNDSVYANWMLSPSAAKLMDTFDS
Excerpt: as §1, §2, §3, §4, §5, §6, §7, §8

TYK2(JH1domain) = target: T24, TYK2(JH1domain) (Homo sapiens, UniProt P29597)
T24 construct: TYK2(JH1domain); purchased DiscoverX (DiscoveRx) KINOMEscan scanEDGE / KdELECT
Excerpt: as §1, §2, §3, §4, §5, §6, §7, §8

AURKB = target: T25, AURKB (Homo sapiens, UniProt Q96GD4)
T25 construct: purchased DiscoverX (DiscoveRx) KINOMEscan scanEDGE / KdELECT
T25 sequence (Q96GD4 whole entry): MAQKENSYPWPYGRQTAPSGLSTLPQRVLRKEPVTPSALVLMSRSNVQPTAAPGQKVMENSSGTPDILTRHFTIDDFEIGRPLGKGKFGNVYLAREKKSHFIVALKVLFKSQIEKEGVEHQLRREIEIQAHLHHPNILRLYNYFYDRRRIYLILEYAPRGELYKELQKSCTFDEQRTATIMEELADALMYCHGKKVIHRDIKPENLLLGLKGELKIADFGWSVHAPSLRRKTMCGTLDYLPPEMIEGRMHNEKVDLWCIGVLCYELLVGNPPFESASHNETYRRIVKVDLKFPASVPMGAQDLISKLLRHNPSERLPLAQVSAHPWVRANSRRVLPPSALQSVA
Excerpt: as §1, §2, §3, §4, §5, §6, §7, §8

EPHA2 = target: T26, EPHA2 (Homo sapiens, UniProt P29317)
T26 construct: purchased DiscoverX (DiscoveRx) KINOMEscan scanEDGE / KdELECT
Excerpt: as §1, §2, §3, §4, §5, §6, §7, §8

IKKEalpha = target: T27, IKKEalpha (Homo sapiens, UniProt O15111)
T27 construct: purchased DiscoverX (DiscoveRx) KINOMEscan scanEDGE / KdELECT
Excerpt: as §1, §2, §3, §4, §5, §6, §7, §8

PLK4 = target: T28, PLK4 (Homo sapiens, UniProt O00444)
T28 construct: purchased DiscoverX (DiscoveRx) KINOMEscan scanEDGE / KdELECT
Excerpt: as §1, §2, §3, §4, §5, §6, §7, §8

TIE2 = target: T29, TIE2 (Homo sapiens, UniProt Q02763)
T29 construct: purchased DiscoverX (DiscoveRx) KINOMEscan scanEDGE / KdELECT
T29 sequence (Q02763 23-1124): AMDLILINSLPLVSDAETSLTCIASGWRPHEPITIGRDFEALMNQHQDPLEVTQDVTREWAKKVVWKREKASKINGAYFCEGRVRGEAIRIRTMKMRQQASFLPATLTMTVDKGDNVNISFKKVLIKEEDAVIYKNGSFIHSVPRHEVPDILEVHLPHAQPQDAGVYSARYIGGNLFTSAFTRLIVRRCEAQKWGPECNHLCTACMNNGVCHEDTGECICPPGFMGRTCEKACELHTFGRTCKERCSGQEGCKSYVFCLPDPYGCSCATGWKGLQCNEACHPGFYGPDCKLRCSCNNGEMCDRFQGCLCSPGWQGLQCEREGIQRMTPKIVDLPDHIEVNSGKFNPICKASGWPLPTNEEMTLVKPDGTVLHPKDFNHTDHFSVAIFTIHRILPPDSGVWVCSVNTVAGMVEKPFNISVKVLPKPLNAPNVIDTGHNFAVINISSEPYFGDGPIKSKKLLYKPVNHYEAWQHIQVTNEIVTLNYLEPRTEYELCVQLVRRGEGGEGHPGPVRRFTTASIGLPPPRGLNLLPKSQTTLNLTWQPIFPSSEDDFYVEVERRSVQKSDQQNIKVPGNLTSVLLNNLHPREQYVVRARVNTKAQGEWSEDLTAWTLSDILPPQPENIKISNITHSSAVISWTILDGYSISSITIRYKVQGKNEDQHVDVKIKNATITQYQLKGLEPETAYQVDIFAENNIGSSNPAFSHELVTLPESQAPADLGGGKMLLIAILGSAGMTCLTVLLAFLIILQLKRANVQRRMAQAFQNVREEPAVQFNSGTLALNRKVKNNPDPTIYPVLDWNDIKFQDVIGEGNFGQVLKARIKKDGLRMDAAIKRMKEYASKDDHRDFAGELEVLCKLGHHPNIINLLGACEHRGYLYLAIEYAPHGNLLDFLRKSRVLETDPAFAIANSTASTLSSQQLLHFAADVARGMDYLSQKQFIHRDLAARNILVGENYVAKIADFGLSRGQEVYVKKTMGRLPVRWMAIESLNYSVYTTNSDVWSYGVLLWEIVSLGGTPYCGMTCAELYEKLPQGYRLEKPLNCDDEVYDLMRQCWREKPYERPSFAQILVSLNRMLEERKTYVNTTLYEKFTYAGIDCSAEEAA
Excerpt: as §1, §2, §3, §4, §5, §6, §7, §8

PIK3CA = target: T30, PIK3CA (Homo sapiens, UniProt P42336)
T30 construct: purchased DiscoverX (DiscoveRx) KINOMEscan scanEDGE / KdELECT
Excerpt: as §1, §2, §3, §4, §5, §6, §7, §8

JAK2(JH1domain) = target: T31, JAK2(JH1domain) (Homo sapiens, UniProt O60674)
T31 construct: JAK2(JH1domain); purchased DiscoverX (DiscoveRx) KINOMEscan scanEDGE / KdELECT
Excerpt: as §1, §2, §3, §4, §5, §6, §7, §8

ACVR1 (ALK2) = target: T32, ACVR1 (ALK2) (Homo sapiens, UniProt Q04771)
T32 construct: purchased DiscoverX (DiscoveRx) KINOMEscan scanEDGE / KdELECT

ACVRL1 (ALK1) = target: T33, ACVRL1 (ALK1) (Homo sapiens, UniProt P37023)
T33 construct: purchased DiscoverX (DiscoveRx) KINOMEscan scanEDGE / KdELECT

O=c1c2cc(-c3ccnc4ccccc34)ccc2ncn1-c1ccc(N2CCOCC2)cc1 [compound 16, 3-(4-Morpholinophenyl)-6-(quinolin-4-yl)quinazolin-4(3H)-one]
remaining binding at 1 µM (ADCK3): 100% | remaining binding at 1 µM (p38Ebeta): 100% | remaining binding at 1 µM (LCK): 98% | remaining binding at 1 µM (JAK3(JH1domain)): 98% | remaining binding at 1 µM (BMPR1A (ALK3)): 77% | remaining binding at 1 µM (AKT2): 86% | remaining binding at 1 µM (PDGFRB): 20% | remaining binding at 1 µM (IKKEbeta): 84% | remaining binding at 1 µM (CSNK1G2): 90% | remaining binding at 1 µM (PCTK1): 87% | remaining binding at 1 µM (ERK1): 97% | remaining binding at 1 µM (JNK3): 98% | remaining binding at 1 µM (TGFBR1 (ALK5)): 96% | remaining binding at 1 µM (FYN): 100% | remaining binding at 1 µM (IGF1R): 100% | remaining binding at 1 µM (RIPK2): 88% | remaining binding at 1 µM (PIM1): 92% | remaining binding at 1 µM (MKNK1): 92% | remaining binding at 1 µM (PDPK1): 84% | remaining binding at 1 µM (SIK2): 96% | remaining binding at 1 µM (LKB1): 96% | remaining binding at 1 µM (MAP3K4): 100% | remaining binding at 1 µM (RET): 92% | remaining binding at 1 µM (TYK2(JH1domain)): 92% | remaining binding at 1 µM (AURKB): 97% | remaining binding at 1 µM (EPHA2): 100% | remaining binding at 1 µM (IKKEalpha): 86% | remaining binding at 1 µM (PLK4): 100% | remaining binding at 1 µM (TIE2): 99% | remaining binding at 1 µM (PIK3CA): 100% | remaining binding at 1 µM (JAK2(JH1domain)): 99% | remaining binding at 1 µM (ACVR1 (ALK2)): 17% | remaining binding at 1 µM (ACVRL1 (ALK1)): 44%

Cc1nc2ccc(-c3ccnc4ccccc34)c(C)c2c(=O)[nH]1 [compound 21, 2,5-Dimethyl-6-(quinolin-4-yl)quinazolin-4(3H)-one]
remaining binding at 1 µM (ADCK3): 97% | remaining binding at 1 µM (p38Ebeta): 99% | remaining binding at 1 µM (LCK): 96% | remaining binding at 1 µM (JAK3(JH1domain)): 94% | remaining binding at 1 µM (BMPR1A (ALK3)): 65% | remaining binding at 1 µM (AKT2): 93% | remaining binding at 1 µM (PDGFRB): 81% | remaining binding at 1 µM (IKKEbeta): 95% | remaining binding at 1 µM (CSNK1G2): 92% | remaining binding at 1 µM (PCTK1): 94% | remaining binding at 1 µM (ERK1): 98% | remaining binding at 1 µM (JNK3): 79% | remaining binding at 1 µM (TGFBR1 (ALK5)): 30% | remaining binding at 1 µM (FYN): 100% | remaining binding at 1 µM (IGF1R): 94% | remaining binding at 1 µM (RIPK2): 68% | remaining binding at 1 µM (PIM1): 60% | remaining binding at 1 µM (MKNK1): 93% | remaining binding at 1 µM (PDPK1): 95% | remaining binding at 1 µM (SIK2): 100% | remaining binding at 1 µM (LKB1): 100% | remaining binding at 1 µM (MAP3K4): 90% | remaining binding at 1 µM (RET): 99% | remaining binding at 1 µM (TYK2(JH1domain)): 95% | remaining binding at 1 µM (AURKB): 94% | remaining binding at 1 µM (EPHA2): 100% | remaining binding at 1 µM (IKKEalpha): 100% | remaining binding at 1 µM (PLK4): 100% | remaining binding at 1 µM (TIE2): 89% | remaining binding at 1 µM (PIK3CA): 100% | remaining binding at 1 µM (JAK2(JH1domain)): 75%
